Experimental data published in patent publication EP0309422A2, “New amidino tricycle derivatives” (ISTITUTO DE ANGELI S.p.A., priority 1987, dated 1989).

Molecular target: T1, muscarinic receptors of the cerebral cortex (Rattus norvegicus, UniProt P08482)
T1 construct: displacement of ³H-pirenzepine from cerebral cortex homogenate; from tissue; host or cells: rat cerebral cortex homogenate
T1 sequence (P08482 1-460): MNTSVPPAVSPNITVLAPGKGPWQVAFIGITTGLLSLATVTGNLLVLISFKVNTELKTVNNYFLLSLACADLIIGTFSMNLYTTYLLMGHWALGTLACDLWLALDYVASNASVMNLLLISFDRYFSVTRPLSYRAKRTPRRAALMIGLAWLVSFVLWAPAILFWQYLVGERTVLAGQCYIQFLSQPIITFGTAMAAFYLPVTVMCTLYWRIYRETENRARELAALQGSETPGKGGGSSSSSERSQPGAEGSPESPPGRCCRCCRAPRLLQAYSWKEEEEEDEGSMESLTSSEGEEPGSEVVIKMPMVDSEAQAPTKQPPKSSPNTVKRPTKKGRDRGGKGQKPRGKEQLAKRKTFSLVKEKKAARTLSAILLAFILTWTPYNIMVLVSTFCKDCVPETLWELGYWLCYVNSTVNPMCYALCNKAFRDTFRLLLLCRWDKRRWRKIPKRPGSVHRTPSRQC
Assay: Antimuscarinic activity: in vitro binding, displacement of ³H-pirenzepine from cerebral cortex homogenate
Parameters: species or system male CD-COOBBS rats
Conditions: competition against 0.5 nM ³H-pirenzepine, 45 min at 30°C, KD from IC50 corrected for radioligand occupancy shift, read-out: Dissociation constants (KD) for ³H-pirenzepine binding
Experimental: Antimuscarinic activity was examined by studying the displacement of ³H-pirenzepine from cerebral cortex homogenate according to the procedure reported below: The cerebral cortex donors were male CD-COOBBS rats, 220-250 g body weight. The homogenization process was carried out in a Potter-Evelhjem apparatus in the presence of Na⁺/Mg⁺⁺ HEPES buffer; pH 7.4 (100 mM NaCl, 10 mM MgCl₂, 20 mM HEPES), by filtering the suspension through two layers of cheesecloth.
Binding curves for the under study compounds were derived indirectly from competition experiments against 0.5 nM ³H-pirenzepine labelling the muscarinic receptors of the cerebral cortex. 1 ml of the homogenate was incubated for 45 min at 30°C in the presence of a marker ligand and different concentrations of the cold ligand, conditions under which equilibrium was reached as determined by appropriate association experiments. The incubation was terminated by centrifugation (12,000 rpm for 3 min) at room temperature using an Eppendorf microcentrifuge. The resultant pellet was washed twice with 1.5 ml saline to remove the free radioactivity and it was allowed to drain for some hours. The tips of the tubes containing the pellet were cut off and 200 µl of tissue solubilizer (Lumasolve, Lumac) were added and left to stand overnight. Radioactivity was then counted after addition of 4 ml of liquid scintillation mixture (Dimilume/Toluene 1:10 v:v, Packard)
Assays were carried out in triplicate or quadruplicate and the non-specific binding was defined as the radioactivity bound or entrapped in the pellet when the incubation medium contained 1 µM atropine sulphate. Non-specific binding avaraged less than 30%. KD values (dissociation constants) were obtained by non-linear regression analysis on the basis of a one binding site model with TOPFIT-pharmacokinetic programme package (G. HEINZEL, "Pharmacokinetics during drug development: data analysis and evaluation techniques" Eds. G. BOLZER and J.M. VAN ROSSUM; p. 207, G. Fisher, New York, 1982) after correction for the radioligand occupancy shift according to the equation: KD = IC₅₀/1 + *C/*KD, where *C and *KD represent the concentration and the dissociation constant of the radioligand used, respectively.

| SMILES | Kd [nM] |
| --- | --- |
| N=C(N)N1CCN(CC(=O)N2c3ccccc3NC(=O)c3ccccc32)CC1 [Compound 3, 5,10-dihydro-5-[2-(4-guanyl-piperazin-1-yl)-acetyl]-11H-dibenzo [b,e] [1,4]-diazepin-11-one] | 6 |
| N=C(N)N1C2CCC1CC(CC(=O)N1c3ccccc3NC(=O)c3cscc31)C2 (stereo not drawn) [Compound 19, 4,9-dihydro-4-[2-(8-guanyl-8-azabicyclo[3.2.1]-octan-3-yl)-acetyl]-10H-thieno[3,4-b] [1,5]-benzodiazepin-10-one] | 4 |
| N=C(N)N1CCC(OC(=O)C2c3ccccc3NC(=O)c3ccccc32)CC1 (stereo not drawn) [Compound 31, 5,6-dihydro-11-[(1-guanyl-4-piperidinyl)-oxycarbonyl]-11H-dibenz[b,e]-azepin-6-one] | 7.7 |
| O=C1Nc2ccccc2N(C(=O)CC2CCN(C3=NCCN3)CC2)c2ccccc21 [Compound 72] | 4 |
| CNC(=N)C1CCCN(CC(=O)N2c3ccccc3NC(=O)c3ccccc32)C1 (stereo not drawn) [Compound 78, 5,10-dihydro-5-[2-(3-N-methylguanyl-piperidin-1-yl)-acetyl]-11H-dibenzo[b,e] [1,4]-diazepin-11-one] | 5 |
| O=C1Nc2ccccc2N(C(=O)CCN2C=NCCC2)c2ccccc21 [Compound 81, 5,10-dihydro-5-[3-(1,4,5,6-tetrahydropirimidin-1-yl)-propionyl]-11H-dibenzo[b,e] [1,4]-diazepin-11-one] | 10 |
| O=C1Nc2cccnc2N(C(=O)CCN2C=NCCC2)c2ccccc21 [Compound 82, 5,11-dihydro-11-[3-(1,4,5,6-tetrahydropirimidin-1-yl)-propionyl]-6H-pyrido[2,3-b] [1,5]-benzodiazepin-6-one] | 10 |
| O=C1Nc2ccccc2N(C(=O)CCN2C=NCCC2)c2cscc21 [Compound 83, 4,9-dihydro-4-[3-(1,4,5,6-tetrahydropirimidin-1-yl)-propionyl]-10H-thieno[3,4-b] [1,5]-benzodiazepin-10-one] | 7 |
| CC1=NCCCN1CCC(=O)N1c2ccccc2NC(=O)c2ccccc21 [Compound 84, 5,10-dihydro-5-[3-(2-methyl-1,4,5,6-tetrahydropirimidin-1-yl)-propionyl]-11H-dibenzo[b,e] [1,4]-diazepin-11-one] | 2.5 |
| CC1=NCCCN1CCC(=O)N1c2ccccc2C(=O)Nc2cccnc21 [Compound 85, 5,11-dihydro-11-[3-(2-methyl-1,4,5,6-tetrahydropirimidin-1-yl)-propionyl]-6H-pyrido[2,3-b] [1,4]-benzodiazepin-6-one] | 5 |

The next lines start with the values.

| Kd [nM] | SMILES |
| --- | --- |
| 3.2 | N=C(N)N1CCC(CC(=O)N2c3ccccc3NC(=O)c3ccccc32)CC1 [Compound 20, 5,10-dihydro-5-[2-(1-guanyl-piperidin-4-yl)-acetyl]-11H-dibenzo b,e [1,4]-diazepin-11-one] |
| 9 | N=C(N)N1CCCC(CC(=O)N2c3ccccc3NC(=O)c3ccccc32)C1 (stereo not drawn) [Compound 26, 5,10-dihydro-5-[2-(1-guanyl-piperidin-3-yl)-acetyl]-11H-dibenzo [b,e] [1,4]-diazepin-11-one] |
| 2.7 | CC(=N)N1CCC(CC(=O)N2c3ccccc3NC(=O)c3ccccc32)CC1 [Compound 60, 5,10-dihydro-5-[2-(1-α-iminoethyl-piperidin-h-yl)-acetyl]-11H-dibenzo[b,e] [1,4]-diazepin-11-one] |
| 5 | CC(=N)N1CCCC(CC(=O)N2c3ccccc3NC(=O)c3ccccc32)C1 (stereo not drawn) [Compound 61, 5,10-dihydro-5-[2-(1-α-iminoethyl - piperidin-3-yl)-acetyl]-11H-dibenzo[b,e] [1,4]-diazepin-11-one] |
| 8 | CC(=N)N1CCCC(C(=O)N2c3ccccc3NC(=O)c3ccccc32)C1 (stereo not drawn) [Compound 62, 5,10-dihydro-5-[(1-α-iminoethyl-piperidin-3-yl)-carbonyl]-11H-dibenzo[b,e] [1,4]-diazepin-11-one] |
